In ChEMBL document CHEMBL1201862, “PubChem BioAssay data set” (2004) one finds EC50 and AC50 data, which are given here for 44 molecules.

SMILES strings stand for the structures. Activity calls are given as the source filed them.

Assay [1] has as its target T1, Corticotropin-releasing factor receptor 2/Corticotropin-releasing factor-binding protein (Homo sapiens, UniProt P24387+Q13324).
T1 sequence (Q13324 whole entry): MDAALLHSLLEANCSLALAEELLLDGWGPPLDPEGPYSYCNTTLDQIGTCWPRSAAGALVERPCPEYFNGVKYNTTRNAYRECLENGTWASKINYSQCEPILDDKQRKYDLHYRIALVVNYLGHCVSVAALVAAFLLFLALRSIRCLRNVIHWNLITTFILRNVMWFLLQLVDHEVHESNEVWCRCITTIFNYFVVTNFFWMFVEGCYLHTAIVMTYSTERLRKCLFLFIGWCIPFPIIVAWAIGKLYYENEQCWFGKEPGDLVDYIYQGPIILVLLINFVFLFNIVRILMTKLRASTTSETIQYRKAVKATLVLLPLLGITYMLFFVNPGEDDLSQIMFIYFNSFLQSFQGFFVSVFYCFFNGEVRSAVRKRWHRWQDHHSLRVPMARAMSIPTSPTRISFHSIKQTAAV
T1 sequence (P24387 whole entry): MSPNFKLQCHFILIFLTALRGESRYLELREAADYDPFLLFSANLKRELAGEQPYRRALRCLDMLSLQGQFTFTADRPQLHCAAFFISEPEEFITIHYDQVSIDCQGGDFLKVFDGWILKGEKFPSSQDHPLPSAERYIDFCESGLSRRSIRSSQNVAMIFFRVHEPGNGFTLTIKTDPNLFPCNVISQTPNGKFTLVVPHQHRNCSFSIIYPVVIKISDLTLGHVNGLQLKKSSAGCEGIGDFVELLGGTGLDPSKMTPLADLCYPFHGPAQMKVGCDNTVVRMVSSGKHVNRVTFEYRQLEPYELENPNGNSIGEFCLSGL
The experiment in a line: activators of CRF receptor 2 with binding protein – uHTS hits, confirmation (AID 602473). Format: functional. The note with it: read-out: EC50_Mean.

The target of assay [2] is T2, Heat shock factor protein 1 (Mus musculus, UniProt P38532).
T2 sequence (P38532 whole entry): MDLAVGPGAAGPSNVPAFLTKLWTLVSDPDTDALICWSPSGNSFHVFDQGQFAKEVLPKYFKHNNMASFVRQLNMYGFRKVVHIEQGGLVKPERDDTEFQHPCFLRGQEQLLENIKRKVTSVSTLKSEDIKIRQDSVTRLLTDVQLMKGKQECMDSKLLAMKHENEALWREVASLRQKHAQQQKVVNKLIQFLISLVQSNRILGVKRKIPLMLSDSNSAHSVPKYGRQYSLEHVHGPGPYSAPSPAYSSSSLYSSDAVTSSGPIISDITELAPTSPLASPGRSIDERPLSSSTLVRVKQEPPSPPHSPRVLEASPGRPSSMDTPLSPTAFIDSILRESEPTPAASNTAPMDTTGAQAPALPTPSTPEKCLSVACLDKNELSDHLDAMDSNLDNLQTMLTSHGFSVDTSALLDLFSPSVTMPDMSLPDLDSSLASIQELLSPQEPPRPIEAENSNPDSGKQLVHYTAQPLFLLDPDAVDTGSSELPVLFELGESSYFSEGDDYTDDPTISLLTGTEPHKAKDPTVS
The experiment in a line: HSF1 potentiators in luciferase reporter cells, confirmation, cell-based, NIH3T3, luminescence, dose retest (AID 435004).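 Also: stress induced by proteasome inhibitor MG132 added 30 min after compound; luciferase reporter driven by HSF1 response element in NIH3T3 cells; actives raise luminescence as potentiators of the MG132 stress response.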 The format is functional.

The target in assay [3] is T2, Heat shock factor protein 1. Nature of the assay: inhibition of MG132-induced HSE-luciferase signal, confirmation, cell-based, NIH3T3, luminescence, dose retest (AID 2382).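 Also: NIH3T3 fibroblasts with HSF1-driven luciferase reporter stressed by proteasome inhibitor MG132; luminescence from HSF1-driven luciferase expression after 8 hours of MG132 stress.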 The format is functional.
In assay [4] the target is Cytochrome P450 3A4 (Homo sapiens, UniProt P08684).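 Also: CYP3A4 tested as one member of a cytochrome P450 panel screen.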
The target of assay [5] is Cytochrome P450 2C19 (Homo sapiens, UniProt P33261). Nature of the assay: Cytochrome panel assay with activity outcomes. Panel member name: p450-cyp2c19 Compounds with AC50 equal or less than 10 uM are considered active. The format is functional. The note with it: read-out: AC50.
Assay [6] has as its target T3, Cytochrome P450 1A2 (Homo sapiens, UniProt P05177).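 Also: PubChem cytochrome P450 panel assay, CYP1A2 panel member.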
T3 sequence (P05177 whole entry): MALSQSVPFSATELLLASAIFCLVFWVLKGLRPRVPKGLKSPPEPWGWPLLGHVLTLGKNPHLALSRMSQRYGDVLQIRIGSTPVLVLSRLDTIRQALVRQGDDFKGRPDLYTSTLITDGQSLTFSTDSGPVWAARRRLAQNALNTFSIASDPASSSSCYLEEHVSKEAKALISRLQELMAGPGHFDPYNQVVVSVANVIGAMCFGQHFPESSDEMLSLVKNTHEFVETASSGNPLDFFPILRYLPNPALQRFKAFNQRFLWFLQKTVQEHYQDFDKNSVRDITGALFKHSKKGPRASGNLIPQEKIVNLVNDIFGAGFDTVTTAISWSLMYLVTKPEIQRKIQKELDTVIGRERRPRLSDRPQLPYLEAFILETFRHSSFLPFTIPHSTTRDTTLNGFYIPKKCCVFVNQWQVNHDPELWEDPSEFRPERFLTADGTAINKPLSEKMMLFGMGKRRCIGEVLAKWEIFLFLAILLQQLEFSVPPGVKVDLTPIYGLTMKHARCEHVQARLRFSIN

The nature of assay [7]: Luminescence Cell-Based Dose Response HTS to Identify Activators of Luciferase Translation or Activity in H4 […] Cells. [Related pubchem assays: 1829 (Project Summary), 1814 (Primary HTS)]. Format: functional.
For assay [8], the system named is H4. The experiment in a line: Luminescence Cell-Based Dose Response HTS to Identify Activators of 5'UTR Stem-Loop Driven Prion Protein mRNA Translation in H4 Neuroglioblastoma Cells. [Related pubchem assays: 1829 (Project Summary), 1814 (Primary HTS)]. The note with it: Homo sapiens. Format: functional.
Assay [9] relates to Streptococcus. Nature of the assay: Group A Streptococcus viability loss, dose response, counter-screen for streptokinase expression inhibitor project, luminescence, BacTiterGlo (AID 1915).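 Also: potency for reduction of bacterial viability or growth.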 Format: functional, organism-based. A general note: Counterscreens check selectivity or assay interference.
Assay [10] has as its system Streptococcus sp. 'group A'. The experiment in a line: growth inhibition of control SK(-) GAS strain, dose response, counter-screen for streptokinase expression inhibitor project, luminescence, kanamycin, BacTiterGlo, confirmation (AID 1900). Format: functional, organism-based.

Sequence of Cytochrome P450 2C19 (P33261 whole entry): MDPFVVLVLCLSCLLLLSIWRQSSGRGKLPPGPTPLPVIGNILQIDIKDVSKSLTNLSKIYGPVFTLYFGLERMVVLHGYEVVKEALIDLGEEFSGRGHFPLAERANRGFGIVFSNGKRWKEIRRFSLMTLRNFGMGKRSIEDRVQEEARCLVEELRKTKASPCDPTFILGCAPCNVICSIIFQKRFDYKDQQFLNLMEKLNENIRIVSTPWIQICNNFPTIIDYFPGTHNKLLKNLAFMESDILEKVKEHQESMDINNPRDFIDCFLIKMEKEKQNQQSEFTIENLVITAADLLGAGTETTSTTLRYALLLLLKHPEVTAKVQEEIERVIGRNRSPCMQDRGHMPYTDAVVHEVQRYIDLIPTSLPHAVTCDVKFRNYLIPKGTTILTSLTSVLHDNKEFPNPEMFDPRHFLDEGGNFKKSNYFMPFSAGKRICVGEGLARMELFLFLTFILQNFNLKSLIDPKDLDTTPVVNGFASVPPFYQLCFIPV
Sequence of Cytochrome P450 3A4 (P08684 whole entry): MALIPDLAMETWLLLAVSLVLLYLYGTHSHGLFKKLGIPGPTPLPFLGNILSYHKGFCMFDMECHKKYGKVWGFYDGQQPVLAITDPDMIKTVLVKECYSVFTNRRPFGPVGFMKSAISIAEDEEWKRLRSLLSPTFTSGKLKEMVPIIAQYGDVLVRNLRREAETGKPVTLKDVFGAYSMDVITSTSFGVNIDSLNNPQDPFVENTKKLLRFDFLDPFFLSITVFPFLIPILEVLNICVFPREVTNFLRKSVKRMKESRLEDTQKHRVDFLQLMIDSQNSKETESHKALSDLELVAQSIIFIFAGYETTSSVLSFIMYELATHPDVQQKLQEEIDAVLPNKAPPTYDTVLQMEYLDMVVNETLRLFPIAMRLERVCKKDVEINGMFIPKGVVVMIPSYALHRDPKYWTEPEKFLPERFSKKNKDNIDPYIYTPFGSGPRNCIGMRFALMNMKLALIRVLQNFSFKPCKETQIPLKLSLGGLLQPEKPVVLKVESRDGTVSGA

In the case of `O=C(NCc1cccc(Cl)c1)c1cccc(S(=O)(=O)N2CCCC2)c1`, in [1], the EC50 is > 53 µM (inactive).

Regarding `COc1ccc(OC)c(S(=O)(=O)Nc2ccccc2O)c1`, in assay [2], the EC50 was > 260 µM (inactive).

As to `Cc1ccc(C(=O)NNC(=O)c2ccccc2-n2cccc2)cc1`, the EC50 in assay [2] is > 260 µM (inactive).

As to `COc1ccc(C(NC(=O)c2ccc(O)nc2)C(=O)Nc2ccc(C(C)C)cc2)cc1` (stereo not drawn), the values for the EC50 in [3] and in [1] were > 195 µM (not active) and > 53 µM (inactive), respectively.

Consider `Cc1cc(C)n(-c2nc3ccccc3nc2N2CCN(C(=O)c3ccc(F)cc3)CC2)n1`, for which, in assay [2], the EC50 is > 260 µM (inactive).

On to `CC(C)N1C(=O)/C(=C\c2c[nH]c3ccccc23)S/C1=N\c1ccccc1`, for which the AC50 (commonly the concentration at which the activity in the assay is half-maximal) in assay [4] is 22.4 µM (inconclusive); in assay [5] it was 2 µM (inconclusive); in assay [6] it was 4.47 µM (inconclusive).

For the molecule `C=CCn1c(C)cc(C(=O)CSc2nc(N)cc(N)n2)c1C`, in assay [2], the EC50 was > 260 µM (inactive).

Take `O=S(=O)(c1ccc(Cl)cc1)N1CCC2(CC1)OCCN2S(=O)(=O)c1cccs1`: the EC50 in assay [2] was 227 µM (active).

Turning to `S=C(c1cn(Cc2ccc(Br)cc2)c2ccccc12)N1CCOCC1`, in [2], the EC50 is > 260 µM (inactive).

Turning to `CC/C(=N/Cc1ccc(Cl)c(Cl)c1)c1nc(-c2ccco2)oc1O`, the EC50 in assay [2] was 20 µM (active).

On to `COCCn1c(=O)c(-c2cccc(F)c2)nc2cncnc21`, for which the results for the AC50 in assay [4] and in [5] were 15.8 µM (inconclusive) and 39.8 µM (inconclusive), respectively.

For the molecule `COc1ccc(-c2nc3cnc(OC)nc3n(-c3ccc(OC)cc3)c2=O)cc1`, the AC50 in assay [4] is 15.8 µM (inconclusive); in [6] it was 0.316 µM (inconclusive).

Regarding `CC(C)(C)C(=O)N(CCN(C(=O)C(C)(C)C)c1ccccc1)c1ccccc1`, the AC50 in assay [4] was 7.08 µM (inconclusive); in assay [5], 8.91 µM (inconclusive).

Take `CCOc1ccc(N2C(=O)C(Cl)=C(Nc3ccccc3O)C2=O)cc1`: the EC50 in [7] was > 120 µM (not active); in [8], 0.107 µM (active).

With `CCOC(=O)/C(=C\c1ccc(N2CCC(c3ccccc3)=N2)cc1)C(C)=O`, in [1], the EC50 is 7.05 µM (active).

`COc1ccc(-c2nnc3ccc(SCC(=O)NCC4CCCO4)nn23)cc1` (stereo not drawn): the EC50 in assay [2] is > 260 µM (inactive).

For `O=C(NC(C(=O)N/N=C/c1cccnc1)c1nnc(O)c2ccccc12)c1ccccc1` (stereo not drawn), the EC50 in assay [1] was 7.94 µM (active).

`O=C(c1cnccn1)N1CCC2(CC1)CN(c1cccc(-c3ccccc3)c1)C2`: the AC50 is 39.8 µM (inconclusive) in assay [4] and 15.8 µM (inconclusive) in assay [6].

For the molecule `O=C(COC(=O)[C@H](Cc1ccccc1)NC(=O)c1ccco1)NCc1ccccc1`, the EC50 in assay [1] is 10.4 µM (active).

Turning to `CN=C(S)NCCC(c1ccccc1)c1ccccc1`, in assay [2], the EC50 was > 260 µM (inactive).

With `CC(=O)Nc1ccc(N2C(=O)C3C4CC(=O)C(c5ccccc54)C3C2=O)cc1` (stereo not drawn), the EC50 in assay [2] was > 260 µM (inactive).

`CCOc1ccc(N2C(=O)/C(=C\NNC(=O)C3COc4ccccc4O3)c3ccccc3C2=O)cc1` (stereo not drawn): the figures for the EC50 in [9] and in assay [10] were 5.75 µM (active) and 1.63 µM (active), respectively.

For the molecule `COc1ccc(CN(C)Cc2c(O)ccc3ccccc23)cc1`, the EC50 in assay [2] was 38.8 µM (active).

In the case of `Cc1nc2c(c(=O)c3ccccc3n2C)c(=O)n1C1CCCCCC1`, the EC50 in assay [1] was 9.6 µM (active).

As to `CC(=O)c1ccc(N2CCN(C(=O)c3[nH]nc4ccccc34)CC2)cc1`, in assay [2], the EC50 is > 260 µM (inactive).

Regarding `COC(=O)C1=CN(c2ccc(F)cc2)C=C(C(=O)OC)C1c1cccc(Br)c1`, in [2], the EC50 was > 260 µM (inactive).

As to `CN1CCCC2(CCN(C(=O)c3cc(C(F)(F)F)cc(C(F)(F)F)c3)CC2)C1`, the AC50 in assay [4] and in assay [5] was 25.1 µM (inconclusive) throughout.

As to `O=C(Nc1cccn(Cc2c(Cl)cccc2Cl)c1=O)c1ccc(Cl)cc1Cl`, the AC50 was 14.1 µM (inconclusive) in assay [4] and 2.82 µM (inconclusive) in assay [6].

Regarding `Cc1nn(-c2ccc(Cl)cc2)c(O)c1/C=N/n1c(C)nc2ccccc2c1=O`, the EC50 is 7.22 µM (active) in assay [9] and 3.48 µM (active) in [10].

For `O=C(COc1ccccc1)NC(=S)Nc1cccc2cc(O)ccc12`, in [2], the EC50 is > 260 µM (inactive).

With `Cc1nc(C(=N)NOC(=O)Cc2ccccc2)no1`, the EC50 in assay [2] is > 260 µM (inactive).

In the case of `Cn1ncc2c(Nc3ccc(Br)cc3)nc(Nc3ccc(Br)cc3)nc21`, the EC50 in assay [9] was 2.38 µM (active); in assay [10] it was 1.01 µM (active).

In the case of `COc1ccc(NC(=O)C(NCC(C)C)c2ccccc2)cc1Cl` (stereo not drawn), in [2], the EC50 was > 260 µM (inactive).

For `N=C(NOC(=O)/C=C/c1ccccc1Cl)c1cccnc1`, the EC50 in assay [8] was 22.8 µM (active).

Turning to `Cc1cccn2c(=O)c3cc(C#N)/c(=N\C(=O)c4cccnc4)n(CC4CCCO4)c3nc12` (stereo not drawn), the EC50 in assay [1] is > 53 µM (inactive).

As for `Cc1noc(C)c1C(=O)N1CCC2(CCCN(C(=O)Nc3cccc(F)c3)C2)CC1`, the AC50 in assay [4] and in assay [6] was 15.8 µM (inconclusive) throughout.

Regarding `CCOC(=O)c1ccc(NC(=O)CCS(=O)(=O)c2ccc(Br)s2)cc1`, the EC50 in assay [2] was > 260 µM (inactive).

As for `COC(=O)c1ccc(OC(=O)CCN2C(=O)C3CCCCC3C2=O)cc1` (stereo not drawn), in [2], the EC50 was > 260 µM (inactive).

`COc1ccc(NC(=O)c2ccc(-c3ccc(-c4noc(C)n4)cc3C)cc2)cc1OCCN(C)C`: the AC50 in assay [4] is 15.8 µM (inconclusive); in assay [6], 39.8 µM (inconclusive).

`O=C(c1cccc(F)c1)N1CCC2(CCCN(c3ccc(-c4ccccc4)cc3)C2)CC1`: the results for the AC50 in [4] and in assay [5] were 12.6 µM (inconclusive) and 20 µM (inconclusive), respectively.

As to `CC(c1ccccc1C(O)(c1ccccc1)c1ccccc1)N(C)C` (stereo not drawn), the EC50 in assay [1] was 4.62 µM (active).

Turning to `CN(Cc1ccc(OC(F)F)cc1)Cc1nc(O)c2cc(Br)cc(Br)c2n1`, the EC50 in [9] was > 150 µM (not active); in assay [10], 4.31 µM (active).

As for `Cc1cccc(-n2nnc3cnn(C)c3c2=O)c1`, the AC50 in assay [4] was 31.6 µM (inconclusive); in assay [6], 12.6 µM (inconclusive).

Turning to `COc1cc(OC)c(C2C(C(=O)O)c3ccccc3C(=O)N2C)cc1OC` (stereo not drawn), the AC50 was 0.355 µM (inconclusive) in [4] and 31.6 µM (inconclusive) in [6].
